# Experiments:
# Experiment in all cases: relative viability (nuclei count vs DMSO), 5 days (fraction); higher = more cells survive
# [1] = tested on: NCI-H2023
# Method in brief: (§1)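 Each reported value is a median over duplicate plates. It expresses relative viability: treated-well nuclei count divided by vehicle-well nuclei count. Lung cancer cell lines in 1536-well plates were dosed by pin tool a day after seeding, alone with one drug or with a fixed anchor-drug dose plus five library-drug doses (not always all listed) in √10 steps, and nuclei were counted after 5 days.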
# [2] = tested on: NCI-H1793
# Method in brief: as §1
# [3] = tested on: SK-LU-1
# Method in brief: as §1
# [4] = tested on: EMC-BAC-2
# Method in brief: as §1
# [5] = tested on: HCC-78
# Method in brief: as §1
# [6] = tested on: LC-2-ad
# Method in brief: as §1
# [7] = tested on: NCI-H2405
# Method in brief: as §1
# [8] = tested on: NCI-H2009
# Method in brief: as §1
# [9] = tested on: UMC-11
# Method in brief: as §1
# [10] = tested on: HCC-15
# Method in brief: as §1
# [11] = tested on: NCI-H23
# Method in brief: as §1
# [12] = tested on: COR-L23
# Method in brief: as §1
# [13] = tested on: NCI-H1993
# Method in brief: as §1
# [14] = tested on: ABC-1
# Method in brief: as §1
# [15] = tested on: NCI-H1944
# Method in brief: as §1
# [16] = tested on: HCC-366
# Method in brief: as §1
# [17] = tested on: NCI-H2228
# Method in brief: as §1
# [18] = tested on: NCI-H2126
# Method in brief: as §1
# [19] = tested on: NCI-H838
# Method in brief: as §1
# [20] = tested on: NCI-H1734
# Method in brief: as §1
# [21] = tested on: HARA
# Method in brief: as §1
# [22] = tested on: A-427
# Method in brief: as §1
smiles,measurement,setting,value
CC1(C)CCC(c2ccc(Cl)cc2)=C(CN2CCN(c3ccc(C(=O)NS(=O)(=O)c4ccc(N[C@H](CCN5CCOCC5)CSc5ccccc5)c(S(=O)(=O)C(F)(F)F)c4)cc3)CC2)C1 [Navitoclax] + CS(=O)(=O)CCNCc1ccc(-c2ccc3ncnc(Nc4ccc(OCc5cccc(F)c5)c(Cl)c4)c3c2)o1 [Lapatinib] (partner 2 µM),relative viability,[1]; first compound 0.005 µM,0.953
same,relative viability,[1]; first compound 0.01581 µM,1.13
same,relative viability,[1]; first compound 0.05 µM,0.685
same,relative viability,[1]; first compound 0.1581 µM,0.927
same,relative viability,[1]; first compound 0.5 µM,0.816
same,relative viability,[2]; first compound 0.005 µM,0.601
same,relative viability,[2]; first compound 0.01581 µM,0.779
same,relative viability,[2]; first compound 0.05 µM,0.467
same,relative viability,[2]; first compound 0.1581 µM,0.843
same,relative viability,[2]; first compound 0.5 µM,0.557
same,relative viability,[3]; first compound 0.005 µM,0.849
same,relative viability,[3]; first compound 0.01581 µM,1.12
same,relative viability,[3]; first compound 0.05 µM,0.886
same,relative viability,[3]; first compound 0.1581 µM,0.896
same,relative viability,[3]; first compound 0.5 µM,0.753
same,relative viability,[4]; first compound 0.005 µM,0.895
same,relative viability,[4]; first compound 0.01581 µM,0.893
same,relative viability,[4]; first compound 0.05 µM,0.884
same,relative viability,[4]; first compound 0.1581 µM,0.963
same,relative viability,[4]; first compound 0.5 µM,0.943
same,relative viability,[5]; first compound 0.005 µM,0.704
same,relative viability,[5]; first compound 0.01581 µM,0.987
same,relative viability,[5]; first compound 0.1581 µM,0.75
same,relative viability,[5]; first compound 0.5 µM,0.76
same,relative viability,[6]; first compound 0.005 µM,0.936
same,relative viability,[6]; first compound 0.01581 µM,1.02
same,relative viability,[6]; first compound 0.05 µM,0.898
same,relative viability,[6]; first compound 0.1581 µM,1.01
same,relative viability,[6]; first compound 0.5 µM,0.96
same,relative viability,[7]; first compound 0.005 µM,1.03
same,relative viability,[7]; first compound 0.01581 µM,1.29
same,relative viability,[7]; first compound 0.05 µM,1.19
same,relative viability,[7]; first compound 0.1581 µM,1.02
same,relative viability,[7]; first compound 0.5 µM,0.927
same,relative viability,[8]; first compound 0.005 µM,0.938
same,relative viability,[8]; first compound 0.01581 µM,1.14
same,relative viability,[8]; first compound 0.05 µM,0.953
same,relative viability,[8]; first compound 0.1581 µM,0.9
same,relative viability,[8]; first compound 0.5 µM,0.998
same,relative viability,[9]; first compound 0.005 µM,0.862
same,relative viability,[9]; first compound 0.01581 µM,1.02
same,relative viability,[9]; first compound 0.05 µM,0.747
same,relative viability,[9]; first compound 0.1581 µM,0.858
same,relative viability,[9]; first compound 0.5 µM,0.481
same,relative viability,[10]; first compound 0.005 µM,0.814
same,relative viability,[10]; first compound 0.01581 µM,0.946
same,relative viability,[10]; first compound 0.05 µM,0.713
same,relative viability,[10]; first compound 0.1581 µM,0.813
same,relative viability,[10]; first compound 0.5 µM,0.836
same,relative viability,[11]; first compound 0.005 µM,1.05
same,relative viability,[11]; first compound 0.01581 µM,1.05
same,relative viability,[11]; first compound 0.05 µM,1.11
same,relative viability,[11]; first compound 0.1581 µM,1.05
same,relative viability,[11]; first compound 0.5 µM,1.09
same,relative viability,[12]; first compound 0.005 µM,0.919
same,relative viability,[12]; first compound 0.01581 µM,1.25
same,relative viability,[12]; first compound 0.05 µM,1.33
same,relative viability,[12]; first compound 0.1581 µM,0.705
same,relative viability,[12]; first compound 0.5 µM,0.922
same,relative viability,[13]; first compound 0.005 µM,0.849
same,relative viability,[13]; first compound 0.01581 µM,0.855
same,relative viability,[13]; first compound 0.05 µM,0.756
same,relative viability,[13]; first compound 0.1581 µM,0.795
same,relative viability,[13]; first compound 0.5 µM,0.883
same,relative viability,[14]; first compound 0.005 µM,1.1
same,relative viability,[14]; first compound 0.01581 µM,1.46
same,relative viability,[14]; first compound 0.05 µM,1.09
same,relative viability,[14]; first compound 0.1581 µM,1.19
same,relative viability,[14]; first compound 0.5 µM,1.05
same,relative viability,[15]; first compound 0.005 µM,0.869
same,relative viability,[15]; first compound 0.01581 µM,0.871
same,relative viability,[15]; first compound 0.05 µM,0.629
same,relative viability,[15]; first compound 0.1581 µM,0.788
same,relative viability,[15]; first compound 0.5 µM,0.833
same,relative viability,[16]; first compound 0.005 µM,1
same,relative viability,[16]; first compound 0.01581 µM,1.16
same,relative viability,[16]; first compound 0.05 µM,0.348
same,relative viability,[16]; first compound 0.1581 µM,1.04
same,relative viability,[16]; first compound 0.5 µM,1.08
same,relative viability,[17]; first compound 0.005 µM,1.09
same,relative viability,[17]; first compound 0.01581 µM,0.9
same,relative viability,[17]; first compound 0.05 µM,1.14
same,relative viability,[17]; first compound 0.1581 µM,0.893
same,relative viability,[17]; first compound 0.5 µM,1.03
same,relative viability,[18]; first compound 0.005 µM,0.784
same,relative viability,[18]; first compound 0.01581 µM,0.757
same,relative viability,[18]; first compound 0.05 µM,0.739
same,relative viability,[18]; first compound 0.1581 µM,0.729
same,relative viability,[18]; first compound 0.5 µM,0.702
same,relative viability,[19]; first compound 0.005 µM,0.921
same,relative viability,[19]; first compound 0.01581 µM,1.16
same,relative viability,[19]; first compound 0.05 µM,1.29
same,relative viability,[19]; first compound 0.1581 µM,0.97
same,relative viability,[19]; first compound 0.5 µM,1.03
same,relative viability,[20]; first compound 0.005 µM,1.09
same,relative viability,[20]; first compound 0.01581 µM,1.16
same,relative viability,[20]; first compound 0.1581 µM,0.973
same,relative viability,[20]; first compound 0.5 µM,1.09
same,relative viability,[21]; first compound 0.005 µM,0.686
same,relative viability,[21]; first compound 0.01581 µM,1
same,relative viability,[21]; first compound 0.05 µM,0.799
same,relative viability,[21]; first compound 0.1581 µM,0.728
same,relative viability,[21]; first compound 0.5 µM,1
same,relative viability,[22]; first compound 0.005 µM,1.05
same,relative viability,[22]; first compound 0.01581 µM,0.956
same,relative viability,[22]; first compound 0.05 µM,0.825
same,relative viability,[22]; first compound 0.1581 µM,1.05
same,relative viability,[22]; first compound 0.5 µM,1.06
